The record followed here is patent publication US7700788B2, “Hydroxymethyl furfural oxidation methods” (Battelle Memorial Institute, priority 2006, dated 2010).

This series in a line: Solubility of FDCA in acetic acid/water mixtures. It is filed as physicochemical.

On to `O=C(O)c1ccc(C(=O)O)o1` [FDCA], for which the Solubility came out at 0.086 wt % (0 Vol % HOAc / 100 Vol % H2O, 25° C.); 0.327 wt % (0 Vol % HOAc / 100 Vol % H2O, 70° C.); 0.153 wt % (40 Vol % HOAc / 60 Vol % H2O, 25° C.); 0.779 wt % (40 Vol % HOAc / 60 Vol % H2O, 70° C.); 0.173 wt % (50 Vol % HOAc / 50 Vol % H2O, 25° C.); 0.746 wt % (50 Vol % HOAc / 50 Vol % H2O, 70° C.). Besides, the Solubility by setting is: (60 Vol % HOAc / 40 Vol % H2O, 25° C.) 0.171 wt %; (60 Vol % HOAc / 40 Vol % H2O, 70° C.) 0.596 wt %; (70 Vol % HOAc / 30 Vol % H2O, 25° C.) 0.143 wt %; (70 Vol % HOAc / 30 Vol % H2O, 70° C.) 0.592 wt %; (90 Vol % HOAc / 10 Vol % H2O, 25° C.) 0.138 wt %; (90 Vol % HOAc / 10 Vol % H2O, 70° C.) 0.458 wt %. Also, the Solubility by setting is: (100 Vol % HOAc / 0 Vol % H2O, 25° C.) 0.080 wt %; (100 Vol % HOAc / 0 Vol % H2O, 70° C.) 0.193 wt %. Also, under “40/60 HOAc/H2O versus pure water”, the “Solubility in 40/60 HOAc/H2O relative to pure water” value was “about twice the solubility in pure water”.
